Where “and” joins values, the source holds several entries; their conditions need not be identical. Equal values may be shown once. Where a name gives a salt, the structure may show the parent alone.
Tests used:
[1] = Calcein release from LUVs; conditions: 10 μM DICAM, 25°C; for Leak of calcein from pure POPG LUVs, result in words: vesicle buffer (10 mM Tris, 140 mM NaCl, 0.5 mM EDTA, pH 7.4), fluorescence 480/550 nm, normalised to 0.025% Triton-X100; for Permeation of DOPE:POPG:CL (80:15:5) LUVs, result in words: vesicle buffer pH 7.4, calcein release
Experimental: LUVs were prepared for calceine liberation assays as described ([Chongsiriwatana and Barron, 2009]). Lipid composition (mole %) of LUVs was: POPG (100), POPG:CL (80:20), POPG:CL:DOPE ([…]), and POPG:CL:GlcDAG (75:5:20). Briefly, the nitrogen-dried lipid mixture was dissolved at 1.25 mM with 100 mM calceine in vesicle buffer (10 mM Tris, 140 mM NaCl, 0.5 mM EDTA, pH 7.4) followed by five thaw-freeze cycles. Calceine-entrapped LUVs were prepared by extrusion through 100 nm polycarbonate membranes (Avanti Polar Lipids). Non-entrapped calceine was separated from LUVs by gel filtration on a Sephacryl® S200-HR column (Sigma). LUVs permeabilization was monitored at 25°C by fluorescence emission at 550 nm (λex = 480 nm) as a function of time in a Fluoromax-4 spectrofluorometer (Horiba, France) using agitation. Signal stabilization of samples (1,500 µL vesicle buffer plus 45 µL LUVs) was recorded for 5 min before 10 µM final DICAM addition, and calcein release was monitored for a maximum of 20 min. After incubation, samples were solubilized in Triton X-100 (0.025%) and the fluorescence signal recorded thereafter was used to normalize the entire data set. Solubilization of DICAM-untreated LUVs in Triton X-100 was used as a positive control. No perturbation was detected in controls containing DMSO.

S. pyogenes T = experiment: Dose dependence of bacterial viability (CFU counting, Hill fit); type: cell-based, Streptococcus pyogenes; conditions: for SC (stationary concentration, Δlog = 0), S. pyogenes T / EC50 / Δlogmax, S. pyogenes T: 2 h treatment, Hill fit; for SC (stationary concentration, Δlog = 0), S. pyogenes T: BHI medium, added at T1, 10^7–10^8 CFU/mL, CFU vs untreated controls; for SC (stationary concentration, Δlog = 0), S. pyogenes T / EC50 / Δlogmax, S. pyogenes T / Decrease of the number of viable bacteria in the inoculum within 2 h: 37°C; for EC50 / Δlogmax, S. pyogenes T / Decrease of the number of viable bacteria in the inoculum within 2 h: BHI; for EC50: read-out: K 1/2 (concentration yielding half-variation in Δlogmax), S. pyogenes T (converted); for Δlogmax, S. pyogenes T: maximum variation in viability; for Decrease of the number of viable bacteria in the inoculum within 2 h: S. pyogenes T; for Reduction of bacterial viability at 3 × SC, S. pyogenes T: after 2 h of incubation at 3 × SC
Source text: First, the substitution of the fatty amino chain of 18 carbon atoms of the reference compound DICAM 2 by either an OMe group (methylated tripeptide DICAM 5) or an amine with 12 carbon atoms (DICAM 9) abolished the activity against all three pathogens. However, the activity remained intact when the chain of the fatty amine of prototypes DICAMs 1 and 4 was two carbon atoms shorter (DICAM 10 and DICAM 12, respectively), based on S. pneumoniae and S. pyogenes results. […] Third, Glu and Ala were tolerated as C-terminal residues of the lipotripeptides. […] In addition, deletion of the C-terminal Glu (DICAM 13) eradicated the activity against S. pneumoniae and S. aureus. However, a delay and small inhibition of S. pyogenes ^T growth was still observed. Fourth, Glu (DICAMs 19 and 20) and Orn (DICAMs 21 and 22) were tolerated as N-terminal residues, with the impact of these modifications being pathogen-dependent. […] SAR studies continued by measuring the dose dependence of DICAM’s activity at T1 with all the compounds found to be active against S. pyogenes or S. aureus in the initial screening, and all but one compound in the case of S. pneumoniae. The OD values of bacterial cultures were monitored after DICAM addition, and the decrease in the number of viable bacteria was measured relative to controls (Figures 4–6; Supplementary Figure S1). As antibacterial efficacy may decline with the bacterium dose in the inoculum ([Belley et al., 2009]; [Udekwu et al., 2009]; [Luca et al., 2013]), the assays were performed using the bacterial concentrations necessary for the fluorescence experiments in Section 2.3 (10^7–10^8 CFU/mL). At these high bacterial densities, MICs were determined as the DICAM concentration at which bacteria neither grow nor are killed (the stationary concentration (SC)), following [Udekwu et al., 2009]. By fitting the logarithmic plot of cell viability decrease vs. the DICAM dose to a Hill function (see Section 5.2.3.1) we were able to determine the maximum variation in viability (Δlogmax = ∆log f - ∆log 0, where ∆log f and ∆log 0 are the upper and lower limits of Δlog) in the assay conditions, the SC concentration (Δlog = 0), the dose required for half-variation in Δlogmax (K 1/2), and the cooperativity of the antimicrobial effect (N H).
Susceptibility to DICAMs was first tested by growth-inhibition assays at 50 and 100 μM of compound. Briefly, working solutions at 5 mM or 10 mM DICAM in pure DMSO were prepared from DICAM stocks (40 mM in pure DMSO) and diluted with fresh culture medium to 5× the desired final concentration. Aliquots (50 µL) of these solutions were added to 200 µL of bacterium cultures grown to early exponential phase (OD550/600 c. a. 0.15–0.2 in sterile 96-well plates (Cultek, Spain). Incubation continued for 10 h at 37°C and turbidity (OD550/600) values were measured every 20 min to monitor growth and lysis, using a VersaMax microplate reader (Molecular Devices; United Kingdom). Next, the activity dependence on DICAM’s dose was examined by measuring the turbidity of treated and untreated cultures as a function of time. Also, the decay of bacterial viability (CFU/mL) at selected times of treatment was assessed by colony counting on LB-agar or TSA plates after overnight incubation at 37°C. By default, 10 μL of 10-fold serially diluted samples were plated, which set the lower detection limit at 10^2 CFU/mL (10^1 CFU/mL when 100 μL of the undiluted sample was seeded).
As antibacterial efficacy may decline with the bacterium dose in the inoculum ([Belley et al., 2009]; [Udekwu et al., 2009]; [Luca et al., 2013]), activity assays were performed using the bacterial concentrations required for the fluorescence experiments in Section 2.3 (10^7–10^8 CFU/mL). At such bacterial densities, MICs were determined as the DICAM concentration at which bacteria neither grow nor are killed under assay conditions (the stationary concentration (SC)), as indicated in Section 2.2. […]

For `CCCCCCCCCCCCCCCCCCNC(=O)[C@H](CCC(=O)O)NC(=O)[C@H]1CCCN1C(=O)[C@H](C)N` [DICAM 4, Ala- Pro -Glu-NH-C18H37 ·HCl], which “Leak of calcein from pure POPG LUVs, result in words” value (“Leak of calcein from pure POPG LUVs” below) [1] is on record?
The value was “full”.

And the “Permeation of DOPE:POPG:CL (80:15:5) LUVs, result in words” value (“Permeation of DOPE:POPG:CL” for short) [1]?
Its value is “did not permeate”.

And the “SC (stationary concentration, Δlog = 0), S. pyogenes T” value (S. pyogenes T)?
Its value is 10 ± 4 µM.

What about the EC50 (S. pyogenes T) of the same compound?
Its EC50 is 51 ± 10 µM.

What about the “Δlogmax, S. pyogenes T” value (S. pyogenes T) of the same compound?
The value was 6.8 ± 0.8 logarithmic units.

For `CCCCCCCCCCCCCCCCCCNC(=O)[C@H](CCC(=O)O)NC(=O)[C@H]1CCCN1C(=O)[C@H](CC(N)=O)NC(=O)OCc1ccccc1` [DICAM 1, Cbz-Asn- Pro -Glu-NH-C18H37], which EC50 (S. pyogenes T) is on record?
The EC50 was 8.3 ± 0.9 µM.

And the “Δlogmax, S. pyogenes T” value (S. pyogenes T)?
Its value is 2.5 ± 0.1 logarithmic units.

For `CCCCCCCCCCCCCCCCCCNC(=O)[C@H](CCC(=O)O)NC(=O)[C@H]1CCCN1C(=O)[C@H](CCCN)NC(=O)OCc1ccccc1` [DICAM 21, Cbz-Orn- Pro -Glu-NH-C18H37], which “Permeation of DOPE:POPG:CL” value [1] is on record?
Its value is “able to permeate and release calcein”.

What about the “SC (stationary concentration, Δlog = 0), S. pyogenes T” value (S. pyogenes T) of the same compound?
The value was “∼10 µM”.

And the EC50 (S. pyogenes T)?
Its EC50 is 38 ± 40 µM.

What about the “Δlogmax, S. pyogenes T” value (S. pyogenes T) of the same compound?
Its value is 4 ± 2 logarithmic units.

For `CCCCCCCCCCCCCCCCCCNC(=O)[C@H](CCC(=O)O)NC(=O)[C@H]1CCCN1C(=O)[C@@H](N)CC(N)=O` [DICAM 2, Asn- Pro -Glu-NH-C18H37 ·HCl], which “Permeation of DOPE:POPG:CL” value [1] is on record?
The value was “did not permeate”.

What about the EC50 (S. pyogenes T) of the same compound?
Its EC50 is 14 ± 2 µM.

What about the “Decrease of the number of viable bacteria in the inoculum within 2 h” value (S. pyogenes T) of the same compound?
Its value is 99.9–99.99%.

What about the “Reduction of bacterial viability at 3 × SC, S. pyogenes T” value (S. pyogenes T) of the same compound?
The value was 94.5%–99.9.

What about the “Δlogmax, S. pyogenes T” value (S. pyogenes T) of the same compound?
Its value is 3.9 ± 0.4 logarithmic units.

Which EC50 (S. pyogenes T) does the source give for `CCCCCCCCCCCCCCCCNC(=O)[C@H](CCC(=O)O)NC(=O)[C@H]1CCCN1C(=O)[C@H](CC(N)=O)NC(=O)OCc1ccccc1` [DICAM 10, Cbz-Asn- Pro -Glu-NH-C16H33] here?
Its EC50 is 6.8 ± 0.7 µM.

What about the “Δlogmax, S. pyogenes T” value (S. pyogenes T) of the same compound?
The value was 2.6 ± 0.1 logarithmic units.

With “Ala - Pro -Glu-NH-C18H37 · HCl [DICAM 23]” as the compound, how does the “Leak of calcein from pure POPG LUVs” value [1] read?
Its value is “full”.

For `CCCCCCCCCCCCCCCCCCNC(=O)[C@H](C)NC(=O)[C@H]1CCCN1C(=O)[C@H](C)N` [DICAM 14, Ala- Pro -Ala-NH-C18H37 · HCl], which “SC (stationary concentration, Δlog = 0), S. pyogenes T” value (S. pyogenes T) is on record?
Its value is 22 ± 10 µM.

And the EC50 (S. pyogenes T)?
The EC50 was 41 ± 10 µM.

What about the “Δlogmax, S. pyogenes T” value (S. pyogenes T) of the same compound?
The value was 3.7 ± 0.8 logarithmic units.

For `CCCCCCCCCCCCCCCCCCNC(=O)[C@H](CCC(=O)O)NC(=O)[C@H]1CCCN1C(=O)[C@H](CCC(=O)O)NC(=O)OCc1ccccc1` [DICAM 19, Cbz-Glu- Pro -Glu-NH-C18H37], which “SC (stationary concentration, Δlog = 0), S. pyogenes T” value (S. pyogenes T) is on record?
Its value is 4−5 µM and 3.8 ± 0.9 µM.

What about the EC50 (S. pyogenes T) of the same compound?
Its EC50 is 7.1 ± 0.8 µM.

And the “Reduction of bacterial viability at 3 × SC, S. pyogenes T” value (S. pyogenes T)?
Its value is 94.5%–99.9.

What about the “Δlogmax, S. pyogenes T” value (S. pyogenes T) of the same compound?
The value was 3.0 ± 0.2 logarithmic units.

Which results are given for `CCCCCCCCCCCCCCCCCCNC(=O)[C@H](CCC(=O)O)NC(=O)[C@H]1CCCN1C(=O)[C@H](C)NC(C)=O` [DICAM 24, Ac-Ala- Pro -Glu-NH-C18H37]?
EC50 (S. pyogenes T): 7.2 ± 0.4 µM; Decrease of the number of viable bacteria in the inoculum within 2 h (S. pyogenes T): 99.9–99.99%; Reduction of bacterial viability at 3 × SC, S. pyogenes T (S. pyogenes T): 94.5%–99.9; Δlogmax, S. pyogenes T (S. pyogenes T): 5.3 ± 0.1 logarithmic units

What does the source list for `CCCCCCCCCCCCCCCCCCNC(=O)[C@H](CCC(=O)O)NC(=O)[C@H]1CCCN1C(=O)[C@H](C)NC(=O)OCc1ccccc1` [DICAM 3, Cbz-Ala- Pro -Glu-NH-C18H37]?
SC (stationary concentration, Δlog = 0), S. pyogenes T (S. pyogenes T): 3–5 µM and 3.0 ± 0.4 µM; EC50 (S. pyogenes T): 8.1 ± 0.4 µM; Decrease of the number of viable bacteria in the inoculum within 2 h (S. pyogenes T): 99.9–99.99%; Reduction of bacterial viability at 3 × SC, S. pyogenes T (S. pyogenes T): 94.5%–99.9; Δlogmax, S. pyogenes T (S. pyogenes T): 5.4 ± 0.1 logarithmic units

For `CCCCCCCCCCCCCCCCCCNC(=O)[C@H](CCC(=O)O)NC(=O)[C@H]1CCCN1C(=O)[C@@H](N)CCC(=O)O` [DICAM 20, Glu- Pro -Glu-NH-C18H37 · HCl], which “Leak of calcein from pure POPG LUVs” value [1] is on record?
The value was “partial”.

What about the “SC (stationary concentration, Δlog = 0), S. pyogenes T” value (S. pyogenes T) of the same compound?
Its value is 8 ± 2 µM.

What about the EC50 (S. pyogenes T) of the same compound?
The EC50 was 17 ± 4 µM.

What about the “Δlogmax, S. pyogenes T” value (S. pyogenes T) of the same compound?
The value was “∼3.0 logarithmic units”.

Source: publication PMC11329928, “Design, synthesis and structure-activity relationship (SAR) studies of an unusual class of non-cationic fatty amine-tripeptide conjugates as novel synthetic antimicrobial agents” (Frontiers in Pharmacology, 2024)
